Results as given in patent publication US4971962A, “Cephalosporin compounds” (Lucky, Ltd., priority 1988, dated 1990).
≈ marks a conversion by molar mass, not a printed value. Read-outs that look alike come from different tables or passages of the source.

Assays:
[1] = tested on: Bacillus subtilis ATCC 6633; assay: In-vitro antibacterial activity (MIC), two-fold dilution method; format: cell-based; settings: read-out: minimal inhibitory concentration (MIC)
Method: (§1) In-vitro antibacterial activity was determined by the two-fold dilution method as described below. 2 μl of the test microorganism which has the 10^7 CFU per ml was inoculated on the Muller-Hinton agar which has been dispersed by the test compound, and was incubated at 37° C. for 20 hours.

[2] = tested on: Enterobacter aerogenes ATCC 29751; assay: as above; format: cell-based; settings: Klebsiella aerogenes, read-out: minimal inhibitory concentration (MIC)
Method: as §1

[3] = tested on: Escherichia coli ATCC 10536; assay: as above; format: cell-based; settings: read-out: minimal inhibitory concentration (MIC)
Method: as §1

[4] = tested on: Klebsiella pneumoniae ATCC 10031; assay: as above; format: cell-based; settings: read-out: minimal inhibitory concentration (MIC)
Method: as §1

[5] = tested on: Proteus mirabilis ATCC 25933; assay: as above; format: cell-based; settings: read-out: minimal inhibitory concentration (MIC)
Method: as §1

[6] = tested on: Pseudomonas aeruginosa ATCC 10145; assay: as above; format: cell-based; settings: read-out: minimal inhibitory concentration (MIC)
Method: as §1

[7] = tested on: Pseudomonas aeruginosa ATCC 25619; assay: as above; format: cell-based; settings: read-out: minimal inhibitory concentration (MIC)
Method: as §1

[8] = tested on: Pseudomonas aeruginosa ATCC 27853; assay: as above; format: cell-based; settings: read-out: minimal inhibitory concentration (MIC)
Method: as §1

[9] = tested on: Salmonella typhimurium ATCC 14028; assay: as above; format: cell-based; settings: Salmonella enterica, read-out: minimal inhibitory concentration (MIC)
Method: as §1

[10] = tested on: Serratia marcescens ATCC 27117; assay: as above; format: cell-based; settings: read-out: minimal inhibitory concentration (MIC)
Method: as §1

[11] = tested on: Staphylococcus aureus ATCC 10537; assay: as above; format: cell-based; settings: read-out: minimal inhibitory concentration (MIC)
Method: as §1

[12] = tested on: gram-negative bacteria including Pseudomonas aeruginosa; assay: In-vitro antibacterial activity, comparison over gram-negative bacteria; format: cell-based; settings: from Table 1
Method: as §1

[13] = tested on: gram-positive bacteria, especially, Staphylococcus aureus and Bacillus subtilis; assay: In-vitro antibacterial activity, comparison over gram-positive bacteria; format: cell-based; settings: from Table 1
Method: as §1

[14] = dog (Beagle), i.v. 20 mg/kg, II Compartment; cited from earlier work
[15] = monkey (Rhesus), i.v. 20 mg/kg, II Compartment; cited from earlier work
[16] = Pharmacokinetics of compound (Ib) in rat, intravenous, plasma by HPLC; format: in vivo, rat (Fischer); settings: for half-life: rat, 14.29 mg/kg
Method: The pharmacokinetics of the invented compound (Ib) was studied in rat (Fischer, 6~10 weeks). The compound (Ib) was dissolved in phosphate bupper solution(0.05M; pH=9) and intraveneouly administered in a dose of 14.29 mg/kg to four rats, and blood samples from the rats were taken at 1, 5, 10 and 30 mins and 1, 2, 3, 5 and 7 hours after administration of the compound (Ib), respectively.
The concentrations in plasma were measured by HPLC analysis of blood samples, and the results of average concentrations in plasma were listed in Table 2.

[17] = rat (SD), i.v. 20 mg/kg, II Compartment; cited from earlier work
[18] = ATCC6633, Bacillus subtilis ATCC 6633, Muller-Hinton agar, 37° C., 20 hours
[19] = ATCC29751, Enterobacter aerogenes ATCC 29751, Muller-Hinton agar, 37° C., 20 hours
[20] = ATCC10536, Escherichia coli ATCC 10536, Muller-Hinton agar, 37° C., 20 hours
[21] = ATCC10031, Klebsiella pneumoniae ATCC 10031, Muller-Hinton agar, 37° C., 20 hours
[22] = ATCC25933, Proteus mirabilis ATCC 25933, Muller-Hinton agar, 37° C., 20 hours
[23] = ATCC10145, Pseudomonas aeruginosa ATCC 10145, Muller-Hinton agar, 37° C., 20 hours
[24] = ATCC25619, Pseudomonas aeruginosa ATCC 25619, Muller-Hinton agar, 37° C., 20 hours
[25] = ATCC27853, Pseudomonas aeruginosa ATCC 27853, Muller-Hinton agar, 37° C., 20 hours
[26] = Salmonella typhimurium ATCC 14028, Muller-Hinton agar, 37° C., 20 hours
[27] = ATCC27117, Serratia marcescens ATCC 27117, Muller-Hinton agar, 37° C., 20 hours
[28] = ATCC10537, Staphylococcus aureus ATCC 10537, Muller-Hinton agar, 37° C., 20 hours
[29] = Bacillus subtilis, ATCC6633, 20 h
[30] = Pseudomonas aeruginosa, ATCC10145, 20 h
[31] = Staphylococcus aureus, ATCC10537, 20 h

Compound | MIC [2, 19] | MIC [3, 20] | MIC [4, 21] | MIC [5, 22] | MIC [6, 23] | MIC [7, 24] | MIC [8, 25] | MIC [9, 26] | MIC [10, 27] | activity against gram-negative bacteria as compared with ceftazidime and moxalactam [12] | activity against gram-positive bacteria as compared with ceftazidime and moxalactam [13] | MIC [1, 29] | MIC [11, 31] | other results
Cn1nnnc1SCC1=C(C(=O)O)N2C(=O)C(NC(=O)/C(=N\OCc3ccco3)c3csc(N)n3)C2SC1 (centres unmarked) [(Ic), Sodium 7-[(Z)-2-(2-aminothiazol-4-yl)-2-(2-furfuryloxyimino)-acetamido]-3-[(1-methyl-1H-tetrazol-5-yl)thiomethyl]-3-cephem-4-carboxylate] | 8 µg/mL | 0.5 µg/mL | < 0.0315 µg/mL | 0.25 µg/mL | 16 µg/mL | 1 µg/mL | 16 µg/mL | 2 µg/mL | 1 µg/mL | almost equally active | superior antimicrobiral activities | – | – | MIC [1, 18]: 0.5 µg/mL; MIC [11, 28]: 1 µg/mL
CO[C@@]1(NC(=O)C(C(=O)O)c2ccc(O)cc2)C(=O)N2C(C(=O)O)=C(CSc3nnnn3C)CO[C@@H]21 (some centres unmarked) [Moxalactam, reference compound] | 1 µg/mL (≈ 1.92 µM) | 0.125 µg/mL (≈ 0.24 µM) | 0.25 µg/mL (≈ 0.48 µM) | 0.25 µg/mL (≈ 0.48 µM) | – | 8 µg/mL (≈ 15.4 µM) | 16 µg/mL (≈ 30.7 µM) | 0.25 µg/mL (≈ 0.48 µM) | 0.125 µg/mL (≈ 0.24 µM) | – | – | 8 µg/mL (≈ 15.4 µM) | – | MIC [6, 30]: 32 µg/mL (≈ 61.5 µM); MIC [11, 28]: 4 µg/mL (≈ 7.69 µM)
CO/N=C(\C(=O)N[C@@H]1C(=O)N2C(C(=O)O)=C(CSc3nc(=O)c(=O)[nH]n3C)CS[C@H]12)c1csc(N)n1 [Ceftriaxone] | – | – | – | – | – | – | – | – | – | – | – | – | – | AUC [14]: 84.3 µg·h/mL; T1/2 (α) [14]: 6.80 min; T1/2 (β) [14]: 50.7 min; AUC [15]: 838 µg·h/mL; T1/2 (α) [15]: 23.16 min; T1/2 (β) [15]: 204 min
CC(C)(O/N=C(\C(=O)N[C@@H]1C(=O)N2C(C(=O)[O-])=C(C[n+]3ccccc3)CS[C@H]12)c1csc(N)n1)C(=O)O [Ceftazidime, reference compound] | – | – | – | – | – | – | – | – | – | – | – | 16 µg/mL (≈ 29.3 µM) | 4 µg/mL (≈ 7.32 µM) | MIC ([2]; ATCC29751, 20 h): 4 µg/mL (≈ 7.32 µM); MIC ([3]; Escherichia coli, ATCC10536, 20 h): 0.125 µg/mL (≈ 0.229 µM); MIC ([4]; Klebsiella pneumoniae, ATCC10031, 20 h): 0.125 µg/mL (≈ 0.229 µM); MIC ([5]; Proteus mirabilis, ATCC25933, 20 h): 0.0625 µg/mL (≈ 0.114 µM); MIC [6, 30]: 2 µg/mL (≈ 3.66 µM); MIC ([7]; Pseudomonas aeruginosa, ATCC25619, 20 h): 1 µg/mL (≈ 1.83 µM); MIC ([8]; Pseudomonas aeruginosa, ATCC27853, 20 h): 2 µg/mL (≈ 3.66 µM); MIC ([9]; 20 h): 0.25 µg/mL (≈ 0.457 µM); MIC ([10]; Serratia marcescens, ATCC27117, 20 h): 0.0625 µg/mL (≈ 0.114 µM); AUC [14]: 93.0 µg·h/mL
Nc1nc(/C(=N/OCc2ccco2)C(=O)NC2C(=O)N3C(C(=O)[O-])=C(C[n+]4ccccc4)CSC23)cs1 (centres unmarked) [Compound (Ib), 7-[(Z)-2-(2-Aminothiazol-4-yl)-2-(2-furfuryl-oxyimino)acetamido]-3-(1-pyridiniummethyl)-3-cephem-4-carboxylate] | 4 µg/mL (≈ 7.4 µM) | 0.5 µg/mL (≈ 0.925 µM) | 0.0625 µg/mL (≈ 0.116 µM) | 0.5 µg/mL (≈ 0.925 µM) | 8 µg/mL (≈ 14.8 µM) | 1 µg/mL (≈ 1.85 µM) | 8 µg/mL (≈ 14.8 µM) | 2 µg/mL (≈ 3.7 µM) | 0.5 µg/mL (≈ 0.925 µM) | almost equally active | superior antimicrobiral activities | – | 0.25 µg/mL (≈ 0.462 µM) | MIC [1, 18]: 0.25 µg/mL (≈ 0.462 µM); AUC ratio to cefotaxime ([16]; Ib in rat vs cefotaxime in rat): 6.5 times; T1/2 (β) ratio to cefotaxime in rat ([16]; Ib in rat vs cefotaxime in rat): 6.4 times; T1/2 (β) ratio to ceftazidime or ceftriaxone in dog ([16]; Ib in rat vs ceftazidime or ceftriaxone in dog): 1.9 times; AUC ([16]; plasma, iv, rat (Fischer), i.v. 14.29 mg/kg, II Compartment): 62400 ng·h/mL; concentration at 1 min ([16]; plasma, iv, rat (Fischer), i.v. 14.29 mg/kg, average of four rats, 1 min): 112 µg/mL; concentration at 5 min ([16]; plasma, iv, rat (Fischer), i.v. 14.29 mg/kg, average of four rats, 5 min): 60.6 µg/mL; concentration at 10 min ([16]; plasma, iv, rat (Fischer), i.v. 14.29 mg/kg, average of four rats, 10 min): 43000 ng/mL; concentration at 0.5 h ([16]; plasma, iv, rat (Fischer), i.v. 14.29 mg/kg, average of four rats, 30 min): 20700 ng/mL; concentration at 1 h ([16]; plasma, iv, rat (Fischer), i.v. 14.29 mg/kg, average of four rats, 1 hr): 12600 ng/mL; concentration at 2 h ([16]; plasma, iv, rat (Fischer), i.v. 14.29 mg/kg, average of four rats, 2 hr): 6100 ng/mL; concentration at 3 h ([16]; plasma, iv, rat (Fischer), i.v. 14.29 mg/kg, average of four rats, 3 hr): 4300 ng/mL; concentration at 5 h ([16]; plasma, iv, rat (Fischer), i.v. 14.29 mg/kg, average of four rats, 5 hr): 1600 ng/mL; concentration at 7 h ([16]; plasma, iv, rat (Fischer), i.v. 14.29 mg/kg, average of four rats, 7 hr): 900 ng/mL; half-life ([16]; plasma, iv, rat (Fischer), i.v. 14.29 mg/kg, II Compartment, read-out: T1/2 (α)): 6.21 min; half-life ([16]; plasma, iv, rat (Fischer), i.v. 14.29 mg/kg, II Compartment, read-out: T1/2 (β)): 95 min
CC(=O)OCC1=C(C(=O)O)N2C(=O)C(NC(=O)/C(=N\OCc3ccco3)c3csc(N)n3)C2SC1 (centres unmarked) [(Ia), 7-[(Z)-2-(2-Aminothiazol-4-yl)-2-(2-furfuryl-oxyimino)acetamido]-3-acetoxymethyl-3-cephem-4-carboxylic acid] | 16 µg/mL (≈ 30.7 µM) | 0.5 µg/mL (≈ 0.959 µM) | < 0.0312 µg/mL | 0.125 µg/mL (≈ 0.24 µM) | 16 µg/mL (≈ 30.7 µM) | 1 µg/mL (≈ 1.92 µM) | 16 µg/mL (≈ 30.7 µM) | 2 µg/mL (≈ 3.83 µM) | 1 µg/mL (≈ 1.92 µM) | almost equally active | superior antimicrobiral activities | 0.5 µg/mL (≈ 0.959 µM) | 1 µg/mL (≈ 1.92 µM) | –
CO/N=C(\C(=O)N[C@@H]1C(=O)N2C(C(=O)O)=C(COC(C)=O)CS[C@H]12)c1csc(N)n1 [Cefotaxime] | – | – | – | – | – | – | – | – | – | – | – | – | – | AUC [17]: 13.5 µg·h/mL; T1/2 (α) [17]: 4.55 min; T1/2 (β) [17]: 14.8 min
